# Reference: US9233921B2, “Potent poxvirus inhibitor” (priority 2013, dated 2016)
# Entries after “also recorded” stand apart in the source; their conditions may differ. Where two headings read alike, the source gives them in different places.
# Experiments:
# [1] = test system: BSC-1 cells; test: Cytotoxicity (CC50)
# [2] = test system: vaccinia virus; test: microbe, parasite or virus in culture; format: cell-based, Vaccinia virus (WR strain)
# [3] = test system: mD4-VV hybrid virus; test: microbe, parasite or virus in culture; format: cell-based; details: read-out: IC50 mD4-VV hybrid virus
# [4] = Cytotoxicity (CC50); details: African green monkey, BSC-1 cells
# [5] = test system: recombinant VACV (vL1Ri); format: cell-based, vaccinia virus in BSC-1 cells
# [6] = Table 5, mean ± SEM of triplicates
Molecule,IC50 [3] [µM],"CC50 [1, 6] [µM]",SI (selectivity index = CC50/IC50) [2],IC50 ([2]; Orthopoxvirus vaccinia) [µM],further results
6-Methyl-3-(phenylthio)-1H-indole-2-carboxylate [Compound 29],,,,,"CC50 ([1]; read-out: CC50 (cytotoxicity), BSC-1 cells, NA = not active (assays requiring >200 μM)): 26 µM; IC50 ([2]; read-out: IC50 (antiviral)): 10 µM"
"Cc1ccc2c(Sc3cc(Cl)cc(Cl)c3)c(CCC(N)=O)[nH]c2c1 [Compound 24a, 3-(3-((3,5-Dichlorophenyl)thio)-6-methyl-1H-indol-2-yl)propanamide]",0.03,16 ± 5,374,0.042,"cytotoxicity within experimental time frame ([1]; cells treated 9 h, FIG. 7A): minimal cytotoxicity"
"Cc1ccc2c(Sc3cc(Cl)cc(Cl)c3)c(CC(N)=O)[nH]c2c1 [Compound 24b, 2-(3-((3,5-Dichlorophenyl)thio)-6-methyl-1H-indol-2-yl)acetamide]",0.097,26 ± 3,570,0.046,
"Cc1ccc2c(Sc3cc(Cl)cc(Cl)c3)c(CCCC(N)=O)[nH]c2c1 [Compound 24c, 4-(3-((3,5-Dichlorophenyl)thio)-6-methyl-1H-indol-2-yl)butanamide]",0.199,,115,0.208,CC50 [4]: 243 ± 2 µM; fold decrease in potency / loss of activity compared to 24a [2]: ~5 fold
"CCCCCCNC(=O)CCc1[nH]c2cc(C)ccc2c1Sc1cc(Cl)cc(Cl)c1 [Compound 24e, 3-(3-((3,5-Dichlorophenyl)thio)-6-methyl-1H-indol-2-yl)-N-hexylpropanamide]",,27 ± 4,,,
"Nc1ccn(C[C@@H](CO)OCP(=O)(O)O)c(=O)n1 [CDV, cidofovir]",,,,,"EGFP expression (late reporter gene) [5]: equally effective at a higher dose; also recorded: clearly showed suppression of EGFP when pretreated; EGFP expression, compound added after virus adsorption ([5]; 8 h): comparable EGFP expression and CPE to DMSO vehicle; also recorded: EGFP expression comparable to vehicle-treatment"
"Cc1cccc2c(Sc3cc(Cl)c(Cl)cc3Cl)c(C(=O)O)[nH]c12 [Compound 30a, 7-Methyl-3-((2,4,5-trichlorophenyl)thio)-1H-indole-2-carboxylic acid]",,,,,"CC50 [4]: 93 µM; IC50 ([2]; Orthopoxvirus vaccinia, BSC-1, read-out: IC50 (antiviral)): 21 µM"
"Cc1ccc2c(Sc3cc(Cl)cc(Cl)c3)c(CCC(=O)O)[nH]c2c1 [Compound 24d, 3-(3-((3,5-Dichlorophenyl)thio)-6-methyl-1H-indol-2-yl)propanoic acid]",,36 ± 14,152,0.244,fold decrease in potency / loss of activity compared to 24a [2]: ~5 fold
